Measured values reported in patent publication US20110021565A1, “PIPERIDINE DERIVATIVES AS NK3 ANTAGONISTS” (priority 2007, published 2011).
Like-named read-outs stand apart in the source and are kept apart here.

Target: T1, recombinant human NK3 receptor (Homo sapiens, UniProt P29371)
T1 construct: expressed in transfected cells; host or cells: HEK293 cells, transient expression; membrane preparation
T1 sequence (P29371 1-465): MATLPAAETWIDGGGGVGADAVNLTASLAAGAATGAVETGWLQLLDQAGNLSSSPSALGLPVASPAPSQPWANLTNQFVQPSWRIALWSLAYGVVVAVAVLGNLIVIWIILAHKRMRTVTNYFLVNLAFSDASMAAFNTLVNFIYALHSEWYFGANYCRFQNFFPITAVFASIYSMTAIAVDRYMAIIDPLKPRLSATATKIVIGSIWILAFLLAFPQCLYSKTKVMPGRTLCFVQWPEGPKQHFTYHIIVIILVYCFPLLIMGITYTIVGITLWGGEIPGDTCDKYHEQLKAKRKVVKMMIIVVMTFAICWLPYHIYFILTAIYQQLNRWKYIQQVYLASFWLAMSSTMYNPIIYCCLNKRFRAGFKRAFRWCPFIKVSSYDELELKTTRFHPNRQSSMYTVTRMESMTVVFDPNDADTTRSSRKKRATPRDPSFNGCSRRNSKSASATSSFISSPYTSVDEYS
Test: [3H]SR142801 competition binding assay
Procedure, shortened: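 Membranes from HEK293 cells transiently expressing the receptor (5 μg protein/well) incubated 75 min at RT with [3H]SR142801 at its KD and 10 compound concentrations (0.0003-10 μM), in pH 7.4 Tris buffer with MnCl2, phosphoramidon and BSA. Nonspecific binding defined with 10 μM SB222200; bound radioactivity counted after filtration. Ki from IC50 via Cheng-Prusoff; duplicates.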

[1] = [3H]SR142801, membranes of HEK293 cells transiently expressing recombinant human NK3 receptor, read-out: hNK3 Ki

Compound | Ki [1] [nM] | Ki (representative compounds, [3H]SR142801, HEK293 membranes, human NK3 receptor, read-out: Ki NK3 h) [nM]
CN(Cc1ccc(Cl)cc1)C(=O)C(F)(CCN1CCC(NS(C)(=O)=O)CC1)c1ccc(Cl)c(Cl)c1 (stereo not drawn) [Example 62, N-(4-Chloro-benzyl)-2-(3,4-dichloro-phenyl)-2-fluoro-4-(4-methanesulfonyl-amino-piperidin-1-yl)-N-methyl-butyramide] | 105 | 
Cc1ccc(CN(C)C(=O)C(CCN2CCC(NS(C)(=O)=O)CC2)c2ccc(Cl)c(Cl)c2)cc1 (stereo not drawn) [Example 38, 2-(3,4-Dichloro-phenyl)-4-(4-methanesulfonyl-amino-piperidin-1-yl)-N-methyl-N-(4-methyl-benzyl)-butyramide] | 92.9 | 
CN(Cc1cccc(Cl)c1)C(=O)C(C)(CCN1CCC(NS(C)(=O)=O)CC1)c1ccc(Cl)c(Cl)c1 (stereo not drawn) [Example 29, N-(3-Chloro-benzyl)-2-(3,4-dichloro-phenyl)-4-(4-methanesulfonyl-amino-piperidin-1-yl)-2,N-dimethyl-butyramide] | 48.5 | 
CC(CCN1CCC(NS(C)(=O)=O)CC1)(C(=O)NCc1ccc(OC(F)(F)F)cc1)c1ccc(Cl)c(Cl)c1 (stereo not drawn) [Example 23, 2-(3,4-Dichloro-phenyl)-4-(4-methanesulfonyl-amino-piperidin-1-yl)-2-methyl-N-(4-trifluoromethoxy-benzyl)-butyramide] | 140 | 
CC(=O)NC1CCN(CCC(C)(C(=O)N[C@H](CO)c2ccc(F)cc2)c2ccc(Cl)c(Cl)c2)CC1 (single isomer, unassigned; diastereoisomer 2) [Example 155, 4-(4-Acetylamino-piperidin-1-yl)-2-(3,4-dichloro-phenyl)-N-[1-(4-fluoro-phenyl)-2-hydroxy-ethyl]-2-methyl-butyramide (diastereoisomer 2)] | 13.8 | 
CN(Cc1ccc(C(F)(F)F)c(F)c1)C(=O)C(F)(CCN1CCC(NS(C)(=O)=O)CC1)c1ccc(Cl)c(Cl)c1 (stereo not drawn) [Example 61, 2-(3,4-Dichloro-phenyl)-2-fluoro-N-(3-fluoro-4-trifluoromethyl-benzyl)-4-(4-methanesulfonyl-amino-piperidin-1-yl)-N-methyl-butyramide] | 80 | 
CN(Cc1ccccc1Cl)C(=O)C(C)(CCN1CCC(NS(C)(=O)=O)CC1)c1ccc(Cl)c(Cl)c1 (stereo not drawn) [Example 18, N-(2-Chloro-benzyl)-2-(3,4-dichloro-phenyl)-4-(4-methanesulfonyl-amino-piperidin-1-yl)-2,N-dimethyl-butyramide] | 33.3 | 
CN(Cc1ccc(Cl)c(C(F)(F)F)c1)C(=O)C(F)(CCN1CCC(NS(C)(=O)=O)CC1)c1ccc(Cl)c(Cl)c1 (stereo not drawn) [Example 63, N-(4-Chloro-3-trifluoromethyl-benzyl)-2-(3,4-dichloro-phenyl)-2-fluoro-4-(4-methanesulfonyl-amino-piperidin-1-yl)-N-methyl-butyramide] | 117 | 
CC(=O)N(C1CC1)C1CCN(CCC(C)(C(=O)N[C@H](CO)c2ccc(F)cc2)c2ccc(Cl)c(Cl)c2)CC1 (single isomer, unassigned; diastereoisomer 2) [Example 141, 4-[4-(Acetyl-cyclopropyl-amino)-piperidin-1-yl]-2-(3,4-dichloro-phenyl)-N-[1-(4-fluoro-phenyl)-2-hydroxy-ethyl]-2-methyl-butyramide (diastereoisomer 2)] | 165 | 
CC(=O)N(C)C1CCN(CCC(C)(C(=O)N[C@H](CO)c2ccc(F)cc2)c2ccc(Cl)c(Cl)c2)CC1 (single isomer, unassigned; diastereoisomer 2) [Example 139, 4-[4-(Acetyl-methyl-amino)-piperidin-1-yl]-2-(3,4-dichloro-phenyl)-N-[1-(4-fluoro-phenyl)-2-hydroxy-ethyl]-2-methyl-butyramide (diastereoisomer 2)] | 141 | 
CCN(C1CCN(CCC(C)(C(=O)N(C)Cc2ccccc2Cl)c2ccc(Cl)c(Cl)c2)CC1)S(C)(=O)=O (stereo not drawn) [Example 78, N-(2-Chloro-benzyl)-2-(3,4-dichloro-phenyl)-4-[4-(ethyl-methanesulfonyl-amino)-piperidin-1-yl]-2,N-dimethyl-butyramide] | 3.6 | 3.6
